“Also recorded” adds a separate entry of the source.
Legend:
psoriasis = settings: 190 subjects with active psoriatic arthritis and psoriasis, 24 weeks; people with mild to moderate psoriasis; cited from earlier work
[1] = test system: peripheral blood mononuclear cells; assay: in vitro assay using peripheral blood mononuclear cells; format: cell-based; settings: compared with leflunomide
[2] = design: species or system mice; settings: mouse, in vivo, ip
epidermal hyperplasia = assay: rat model of TPA-induced epidermal hyperplasia; format: in vivo, Wistar rats; settings: rat dorsal skin
Method: A rat model of epidermal hyperplasia was used to test the pharmacological activity of 2-[(3,5-difluoro-3'-methoxy-1,1'-biphenyl-4-yl)amino]nicotinic acid.
Wistar rats (200- 250 g) were obtained from Harland (Sant Feliu de Codines, Spain) and maintained in standard Chow diet with light:dark cycles and allowed to feed ad libitum during all procedures. TPA (12-O-tetradecanoylphorbol-13-acetate) was purchased from Sigma Chemicals and a stock solution of 10 mg/ml was prepared in acetone.
On the morning of day 1, the back of each animal (n=5) was shaved so that at least three 2x2 sq cm nude skin areas were uncovered. Six hours later, 200 µL of acetone (vehicle) or a solution of TPA ([…]) in acetone was applied onto the skin by employing a silicone pad in which three 2x2 sq cm areas had been cut out. Area A received acetone (vehicle), whereas B and C received TPA. Twenty-four hours after TPA application, a solution of the active ingredient 2-[(3,5-difluoro-3'-methoxy-1,1'-biphenyl-4-yl)amino]nicotinic acid (1% in acetone) was applied to area C, whereas the remainder areas received acetone. Treatment continued for 7 days with daily application of 2-[(3,5-difluoro-3'-methoxy-1,1'-biphenyl-4-yl)amino]nicotinic acid or acetone. Six hours after last application, animals were sacrificed and skin was excised and processed for histological examination using H/E staining. Hyperplasia was evaluated following a score of 0 (normal skin thickness, 2-3 layers) to 3 (marked hyperplastic epidermis, >8 cell layers) by a blinded expert pathologist.

[3] = topical 1% in acetone, 7 applications, histology day 8

levels of bilirrubin in plasma [2] | levels of transaminases in plasma [2] | SMILES | benefit compared with placebo (psoriasis) | potency [1] | inflammation induced by TPA (dermal) (epidermal hyperplasia; [3]) | mixed perivascular mononuclear infiltration (macrophages, lymphocytes and mastocytes) (epidermal hyperplasia; [3]) | hyperplasia (histological score 0 to 3) (epidermal hyperplasia; topical once daily application of 1% in acetone for 7 days, H/E staining, day 8)
– | – | Cc1oncc1C(=O)Nc1ccc(C(F)(F)F)cc1 [leflunomide, 4-Isoxazolecarboxamide, 5-methyl-N-[4-(trifluoromethyl)phenyl]-] | only a moderate benefit compared with placebo | – | – | – | –
does not show an increase | does not show an increase | COc1cccc(-c2cc(F)c(Nc3ncccc3C(=O)O)c(F)c2)c1 [2-[(3,5-difluoro-3'-methoxy-1,1'-biphenyl-4-yl)amino]nicotinic acid] | – | much higher potency than leflunomide | counteracts; also recorded: able to reduce epidermal hyperplasia and dermal inflammation | greatly diminished | reverted; also recorded: counteracts; also recorded: able to reduce epidermal hyperplasia

From patent publication EP2594271A1, “2-[(3,5-difluoro-3'-methoxy-1,1'-biphenyl-4-yl)amino]nicotinic acid for the treatment of psoriasis” (Almirall, S.A., priority 2011, dated 2013)
